Earlier results on one compound are cited in patent US12285520B2, “Product and manufacturing process for a gum” (McNeil AB, priority 2020, dated 2025).

The conditions of this data set: nicotine; stated as general knowledge, no experiment described.

With `CN1CCCC1c1cccnc1` (stereo not shown) [nicotine], the pKa entry is recorded as “approximately 7.8”.
